# Legend:
# [1] = Antitumor activity against human HL60 (TB) cells; type: functional, HL-60(TB); settings: HL-60
# SNB-19 = assay: Antitumor activity against human SNB19 cells; type: functional
# LOX IMVI = assay: Antitumor activity against human LOX IMVI cells; type: functional
# UO-31 = assay: Antitumor activity against human UO31 cells; type: functional
# NCI-H522 [2] = assay: Growth inhibition of human NCI-H522 cells at 10 uM; type: functional
# MOLT-4 = assay: Antitumor activity against human MOLT4 cells; type: functional
# KM12 = assay: Antitumor activity against human KM12 cells; type: functional
# DU-145 = assay: Antitumor activity against human DU145 cells; type: functional
# [3] = Antitumor activity against human […] cells; type: functional
# MCF7 = assay: Antitumor activity against human MCF7 cells; type: functional
# HT-29 = assay: Antitumor activity against human HT29 cells; type: functional
# A498 = assay: Antitumor activity against human A498 cells; type: functional
# RXF 393 = assay: Antitumor activity against human RXF393 cells; type: functional
# A549 = assay: Antitumor activity against human A549 cells; type: functional
# SF-268 = assay: Antitumor activity against human SF268 cells; type: functional
# SN12C = assay: Antitumor activity against human SN12C cells; type: functional
# IGROV-1 [4] = assay: Growth inhibition of human IGROV1 cells at 1 uM; type: functional
# OVCAR-5 = assay: Antitumor activity against human OVCAR5 cells; type: functional
# HOP-92 [5] = assay: Antitumor activity against human HOP92 cells; type: functional
# SF-539 = assay: Antitumor activity against human SF539 cells; type: functional
# OVCAR-4 = assay: Antitumor activity against human OVCAR4 cells; type: functional
# SK-MEL-5 = assay: Antitumor activity against human SK-MEL-5 cells; type: functional
# HCT-15 = assay: Antitumor activity against human HCT15 cells; type: functional
# UACC-62 = assay: Antitumor activity against human UACC62 cells; type: functional
# SK-MEL-28 = assay: Antitumor activity against human SK-MEL-28 cells; type: functional
# SR [6] = assay: Antitumor activity against human SR cells; type: functional
# NCI-H23 = assay: Antitumor activity against human NCI-H23 cells; type: functional
# SW-620 = assay: Antitumor activity against human SW620 cells; type: functional
# NCI-H522 [7] = assay: Antitumor activity against human NCI-H522 cells; type: functional
# CAKI-1 = assay: Antitumor activity against human CAKI-1 cells; type: functional
# MDA-MB-435 = assay: Antitumor activity against human MDA-MB-435 cells; type: functional
# NCI-H460 = assay: Antitumor activity against human NCI-H460 cells; type: functional
# HCT-116 = assay: Antitumor activity against human HCT116 cells; type: functional
# PC-3 = assay: Antitumor activity against human PC3 cells; type: functional
# SNB-75 = assay: Antitumor activity against human SNB75 cells; type: functional
# SK-OV-3 = assay: Antitumor activity against human SK-OV-3 cells; type: functional
# 786-0 = assay: Antitumor activity against human 786-0 cells; type: functional
# ACHN = assay: Antitumor activity against human ACHN cells; type: functional
# SF-295 = assay: Antitumor activity against human SF295 cells; type: functional
# OVCAR-3 = assay: Antitumor activity against human OVCAR-3 cells; type: functional
# OVCAR-8 = assay: Antitumor activity against human OVCAR8 cells; type: functional
# Malme-3M = assay: Antitumor activity against human MALME-3M cells; type: functional
# NCI/ADR-RES = assay: Antitumor activity against human NCI/ADR-RES cells; type: functional
# IGROV-1 [8] = assay: Growth inhibition of human IGROV1 cells at 10 uM; type: functional
# TK-10 = assay: Antitumor activity against human TK10 cells; type: functional
# HCC 2998 = assay: Antitumor activity against human HCC2998 cells; type: functional
# COLO 205 = assay: Antitumor activity against human COLO205 cells; type: functional
# IGROV-1 [9] = assay: Growth inhibition of human IGROV1 cells at 0.1 uM; type: functional
# K562 = assay: Antitumor activity against human K562 cells; type: functional
# NCI-H522 [10] = assay: Growth inhibition of human NCI-H522 cells at 1 uM; type: functional
# U-251 = assay: Antitumor activity against human U251 cells; type: functional
# EKVX = assay: Antitumor activity against human EKVX cells; type: functional
# IGROV-1 [11] = assay: Antitumor activity against human IGROV1 cells; type: functional
# [12] = Antitumor activity against human HS 578T cells; type: functional
# RPMI-8226 = assay: Antitumor activity against human RPMI8226 cells; type: functional
# CCRF-CEM [13] = assay: Antitumor activity against human CCRF-CEM cells; type: functional
# IGROV-1 [14] = assay: Growth inhibition of human IGROV1 cells at 10 nM; type: functional
# BT-549 = assay: Antitumor activity against human BT549 cells; type: functional
# [15] = Antitumor activity against human NCI-H322 cells; type: functional
# NCI-H226 = assay: Antitumor activity against human NCI-H226 cells; type: functional
# UACC-257 = assay: Antitumor activity against human UACC257 cells; type: functional
# HOP-62 = assay: Antitumor activity against human HOP62 cells; type: functional
# [16] = Growth inhibition of human HS 578T cells at 10 nM; type: functional
# SR [17] = assay: Growth inhibition of human SR cells at 1 uM; type: functional
# CCRF-CEM [18] = assay: Growth inhibition of huam CCRF-CEM at 1 uM; type: functional; settings: Homo sapiens
# HOP-92 [19] = assay: Growth inhibition of human HOP92 cells at 10 nM; type: functional
# [20] = Growth inhibition of human HS 578T cells at 0.1 uM; type: functional
compound,measurement,setting,value
OC[C@H]1C[C@](O)(c2ccccc2Cl)[C@@H](c2ccccc2Cl)O1 (relative stereo),GI50,[1],16.6 µM
same,GI50,SNB-19,31.6 µM
same,GI50,LOX IMVI,17 µM
same,GI50,UO-31,22.9 µM
same,inhibition at 10 µM,NCI-H522 [2],36%
same,GI50,MOLT-4,17 µM
same,GI50,KM12,25.7 µM
same,GI50,DU-145,26.9 µM
same,GI50,[3],18.6 µM
same,GI50,MCF7,26.9 µM
same,GI50,HT-29,17 µM
same,GI50,A498,22.9 µM
same,GI50,RXF 393,18.6 µM
same,GI50,A549,22.9 µM
same,GI50,SF-268,24 µM
same,GI50,SN12C,20.9 µM
same,inhibition at 1 µM,IGROV-1 [4],32%
same,GI50,OVCAR-5,22.9 µM
same,GI50,HOP-92 [5],22.4 µM
same,GI50,SF-539,22.4 µM
same,GI50,OVCAR-4,24.5 µM
same,GI50,SK-MEL-5,17 µM
same,GI50,HCT-15,28.2 µM
same,GI50,UACC-62,16.6 µM
same,GI50,SK-MEL-28,26.3 µM
same,GI50,SR [6],17 µM
same,GI50,NCI-H23,25.7 µM
same,GI50,SW-620,30.2 µM
same,GI50,NCI-H522 [7],13.5 µM
same,GI50,CAKI-1,32.4 µM
same,GI50,MDA-MB-435,16.2 µM
same,GI50,NCI-H460,20 µM
same,GI50,HCT-116,25.7 µM
same,GI50,PC-3,24 µM
same,GI50,SNB-75,20.9 µM
same,GI50,SK-OV-3,23.4 µM
same,GI50,786-0,26.3 µM
same,GI50,ACHN,27.5 µM
same,GI50,SF-295,26.9 µM
same,GI50,OVCAR-3,19.5 µM
same,GI50,OVCAR-8,26.3 µM
same,GI50,Malme-3M,21.4 µM
same,GI50,NCI/ADR-RES,29.5 µM
same,inhibition at 10 µM,IGROV-1 [8],46%
same,GI50,TK-10,20.9 µM
same,GI50,HCC 2998,29.5 µM
same,GI50,COLO 205,14.8 µM
same,inhibition at 0.1 µM,IGROV-1 [9],28%
same,GI50,K562,20 µM
same,inhibition at 1 µM,NCI-H522 [10],27%
same,GI50,U-251,28.2 µM
same,GI50,EKVX,19.1 µM
same,GI50,IGROV-1 [11],11 µM
same,GI50,[12],16.2 µM
same,GI50,RPMI-8226,21.9 µM
same,GI50,CCRF-CEM [13],27.5 µM
same,inhibition at 0.01 µM,IGROV-1 [14],15%
same,GI50,BT-549,17 µM
same,GI50,[15],32.4 µM
same,GI50,NCI-H226,26.3 µM
same,GI50,UACC-257,19.1 µM
same,GI50,HOP-62,31.6 µM
OC[C@H]1C[C@](O)(c2ccc(Cl)cc2)[C@@H](c2ccc(Cl)cc2)O1 (relative stereo),GI50,[1],17.4 µM
same,GI50,SNB-19,38 µM
same,inhibition at 0.01 µM,[16],21%
same,GI50,LOX IMVI,17.8 µM
same,GI50,UO-31,19.5 µM
same,GI50,MOLT-4,17.8 µM
same,GI50,KM12,20.4 µM
same,GI50,DU-145,21.9 µM
same,GI50,[3],19.5 µM
same,GI50,MCF7,30.2 µM
same,GI50,HT-29,24 µM
same,GI50,A498,24.5 µM
same,GI50,RXF 393,20.9 µM
same,GI50,A549,29.5 µM
same,GI50,SF-268,26.9 µM
same,GI50,SN12C,17 µM
same,GI50,OVCAR-5,25.7 µM
same,GI50,HOP-92 [5],17 µM
same,GI50,SF-539,23.4 µM
same,GI50,OVCAR-4,32.4 µM
same,inhibition at 1 µM,SR [17],87%
same,GI50,SK-MEL-5,15.1 µM
same,GI50,HCT-15,31.6 µM
same,GI50,UACC-62,15.8 µM
same,inhibition at 1 µM,CCRF-CEM [18],71%
same,GI50,SK-MEL-28,28.8 µM
same,GI50,SR [6],20.4 µM
same,GI50,NCI-H23,24.5 µM
same,GI50,SW-620,27.5 µM
same,GI50,NCI-H522 [7],26.3 µM
same,GI50,CAKI-1,26.9 µM
same,GI50,MDA-MB-435,22.9 µM
same,GI50,NCI-H460,20 µM
same,GI50,HCT-116,17.4 µM
same,GI50,PC-3,20 µM
same,GI50,SNB-75,22.9 µM
same,GI50,SK-OV-3,39.8 µM
same,GI50,786-0,22.4 µM
same,GI50,ACHN,28.2 µM
same,GI50,SF-295,30.2 µM
same,GI50,OVCAR-3,26.3 µM
same,GI50,OVCAR-8,30.9 µM
same,GI50,Malme-3M,21.4 µM
same,GI50,NCI/ADR-RES,30.2 µM
same,GI50,TK-10,30.2 µM
same,GI50,HCC 2998,24 µM
same,GI50,COLO 205,25.7 µM
same,GI50,K562,25.1 µM
same,GI50,U-251,24.5 µM
same,GI50,EKVX,18.2 µM
same,GI50,[12],18.2 µM
same,GI50,RPMI-8226,13.8 µM
same,GI50,CCRF-CEM [13],0.468 µM
same,GI50,BT-549,16.6 µM
same,GI50,[15],35.5 µM
same,GI50,NCI-H226,26.3 µM
same,GI50,UACC-257,21.4 µM
same,GI50,HOP-62,20.9 µM
OC[C@H]1C[C@](O)(c2ccc(F)cc2)[C@@H](c2ccc(F)cc2)O1 (relative stereo),GI50,[1],> 100 µM
same,GI50,SNB-19,> 100 µM
same,GI50,LOX IMVI,> 100 µM
same,GI50,UO-31,> 100 µM
same,GI50,MOLT-4,100 µM
same,GI50,KM12,> 100 µM
same,GI50,DU-145,> 100 µM
same,GI50,[3],> 100 µM
same,GI50,MCF7,> 100 µM
same,GI50,HT-29,> 100 µM
same,GI50,A498,> 100 µM
same,inhibition at 0.01 µM,HOP-92 [19],13%
same,GI50,RXF 393,52.5 µM
same,GI50,A549,> 100 µM
same,GI50,SF-268,> 100 µM
same,GI50,SN12C,> 100 µM
same,GI50,OVCAR-5,> 100 µM
same,GI50,HOP-92 [5],66.1 µM
same,GI50,SF-539,> 100 µM
same,GI50,OVCAR-4,> 100 µM
same,GI50,SK-MEL-5,> 100 µM
same,GI50,HCT-15,> 100 µM
same,GI50,UACC-62,> 100 µM
same,GI50,SK-MEL-28,> 100 µM
same,GI50,SR [6],> 100 µM
same,GI50,NCI-H23,> 100 µM
same,GI50,SW-620,> 100 µM
same,GI50,NCI-H522 [7],> 100 µM
same,inhibition at 0.1 µM,[20],29%
same,GI50,CAKI-1,> 100 µM
same,GI50,MDA-MB-435,> 100 µM
same,GI50,NCI-H460,> 100 µM
same,GI50,HCT-116,91.2 µM
same,GI50,PC-3,> 100 µM
same,GI50,SNB-75,> 100 µM
same,GI50,SK-OV-3,> 100 µM
same,GI50,786-0,> 100 µM
same,GI50,ACHN,> 100 µM
same,GI50,SF-295,> 100 µM
same,GI50,OVCAR-3,> 100 µM
same,GI50,OVCAR-8,> 100 µM
same,GI50,Malme-3M,> 100 µM
same,GI50,NCI/ADR-RES,> 100 µM
same,GI50,TK-10,> 100 µM
same,GI50,HCC 2998,> 100 µM
same,GI50,COLO 205,> 100 µM
same,GI50,K562,> 100 µM
same,GI50,U-251,> 100 µM
same,GI50,EKVX,> 100 µM
same,GI50,IGROV-1 [11],58.9 µM
same,GI50,[12],44.7 µM
same,GI50,RPMI-8226,> 100 µM
same,GI50,CCRF-CEM [13],> 100 µM
same,GI50,BT-549,> 100 µM
same,GI50,[15],> 100 µM
same,GI50,NCI-H226,> 100 µM
same,GI50,UACC-257,> 100 µM
same,GI50,HOP-62,> 100 µM
